Test systems include T-47D breast; DMS 273 small cell lung; RXF-631 renal; LXFL 529 NSCLC; SNB-78 CNS; KM20L2 colon; XF 498 CNS; M19-MEL melanoma; MDA-N.
Common to all, as to test: DTP human tumour cell line panel, 48 h

The TGI is the concentration at which net growth stops. A lower TGI goes with greater sensitivity of the cells.

“And” between values parts separate entries of the source, which are not always exact repeats. Equal values may be shown once.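 Values below derive from 48-hour exposures of cells grown in 96-well plates, with endpoints linearly interpolated between the two concentrations bracketing the appropriate inhibition level. TGI denotes the concentration required for complete inhibition of growth.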

As to `Nc1ccc2cc3ccc(N)cc3nc2c1`, the TGI in the experiment on T-47D breast is 14.9 µM and 9.61 µM and 8.53 µM; in the experiment with DMS 273 small cell lung it was 3.33 µM; in the experiment with RXF-631 renal it was 4.41 µM; in the experiment on LXFL 529 NSCLC it was 10.3 µM; in the experiment on SNB-78 CNS it was 9.23 µM; with KM20L2 colon it was 6.61 µM. The TGI in the experiment on XF 498 CNS was 5.8 µM; with M19-MEL melanoma, 4.07 µM; in the experiment with MDA-N it was 3.79 µM and 2.77 µM.
As to `C/C(N=NC(=S)N(C)C)=C1\C=CC=CN1O`, the total growth inhibition concentration (TGI) with T-47D breast, in the experiment with DMS 273 small cell lung, with RXF-631 renal, with LXFL 529 NSCLC, in the experiment with SNB-78 CNS and with KM20L2 colon was more than 100 µM each time. In addition, the TGI in the experiment with M19-MEL melanoma and in the experiment with MDA-N was more than 100 µM each time.
As for `O=c1c2cc(Br)cc(Br)c2nc(CCCl)n1CCO`, the concentration for total growth inhibition (TGI) with RXF-631 renal, with LXFL 529 NSCLC, in the experiment with SNB-78 CNS, in the experiment on KM20L2 colon, in the experiment on XF 498 CNS and in the experiment on M19-MEL melanoma was more than 100 µM throughout.
Take `O=C1[C@@H]2C(c3ccccc3F)=NO[C@@H]2C(=O)N1c1ccc(Cc2ccc(N3C(=O)[C@H]4C(c5ccccc5F)=NO[C@H]4C3=O)cc2)cc1`: the TGI in the experiment on DMS 273 small cell lung, in the experiment with RXF-631 renal, in the experiment on LXFL 529 NSCLC, in the experiment with SNB-78 CNS, with KM20L2 colon and in the experiment with XF 498 CNS was more than 100 µM in each case. The compound further gave a concentration for total growth inhibition (TGI) in the experiment with M19-MEL melanoma of more than 100 µM.
On to `O=C(c1ccccc1)C1OC12C(=O)Nc1ccccc12` (centres undefined), for which the total growth inhibition concentration (TGI) is more than 100 µM in the experiment with DMS 273 small cell lung; more than 100 µM in the experiment with RXF-631 renal; 30.3 µM in the experiment on LXFL 529 NSCLC; more than 100 µM with SNB-78 CNS; 66.8 µM in the experiment with KM20L2 colon; more than 100 µM in the experiment with XF 498 CNS. Also, the total growth inhibition concentration (TGI) in the experiment with M19-MEL melanoma was more than 100 µM.
As to `C/C(CC(=O)NCCc1ccccc1)=N\NC(=O)C[n+]1ccccc1`, the TGI in the experiment on DMS 273 small cell lung, in the experiment on RXF-631 renal, in the experiment on LXFL 529 NSCLC, with SNB-78 CNS, with KM20L2 colon and in the experiment with XF 498 CNS was more than 100 µM in each case. In the experiment with M19-MEL melanoma, the total growth inhibition concentration (TGI) was more than 100 µM.
Take `N#Cc1cccnc1Cl`: the TGI in the experiment with DMS 273 small cell lung, in the experiment with RXF-631 renal, with LXFL 529 NSCLC, in the experiment with SNB-78 CNS, with KM20L2 colon and with XF 498 CNS was more than 100 µM in each case. Further, the concentration for total growth inhibition (TGI) with M19-MEL melanoma was more than 100 µM.
As for `O=C(Nc1c(Cl)cc([N+](=O)[O-])cc1Cl)C(=O)C(C1OC(=O)c2ccccc21)[N+](=O)[O-]` (centres undefined), the concentration for total growth inhibition (TGI) in the experiment with RXF-631 renal, in the experiment with LXFL 529 NSCLC, in the experiment on SNB-78 CNS, with KM20L2 colon, in the experiment with XF 498 CNS and in the experiment on M19-MEL melanoma was more than 100 µM throughout.
In the case of `O=C1CCCC[C@H]1[C@H]1CCC[C@@H]([C@H]2CCCCC2=O)C1=O`, the TGI with DMS 273 small cell lung, with RXF-631 renal, in the experiment on LXFL 529 NSCLC, in the experiment on KM20L2 colon, in the experiment with XF 498 CNS and with M19-MEL melanoma was more than 100 µM in each case.
Regarding `O=C(NCO)NCOCn1c(=O)n(CO)c(=O)n(CO)c1=O`, the concentration for total growth inhibition (TGI) with RXF-631 renal is more than 100 µM; in the experiment with LXFL 529 NSCLC it was 42.8 µM; with SNB-78 CNS it was more than 73.9 µM; in the experiment with KM20L2 colon, more than 94.9 µM; in the experiment with XF 498 CNS, 55.5 µM; in the experiment with M19-MEL melanoma, more than 66.3 µM.
On to `C=CC/C=C/C/C=C/CCCCCCCc1cccc(O)c1C(=O)O`, for which the TGI in the experiment with DMS 273 small cell lung, in the experiment with RXF-631 renal, in the experiment with LXFL 529 NSCLC, with SNB-78 CNS, with KM20L2 colon and in the experiment with XF 498 CNS was more than 100 µM each time. Moreover, in the experiment with M19-MEL melanoma, the TGI is more than 100 µM.
On to `S=C1OC2CCCC[C@H]2O1` (some centres undefined), for which the TGI with DMS 273 small cell lung, in the experiment with RXF-631 renal, in the experiment with LXFL 529 NSCLC, in the experiment on SNB-78 CNS, in the experiment on KM20L2 colon and with XF 498 CNS was more than 100 µM throughout. Further, the TGI in the experiment with M19-MEL melanoma was more than 100 µM.
With `O=C1CC2CCCC23CC2(CCN13)OCCO2` (centres undefined), the TGI in the experiment on DMS 273 small cell lung, in the experiment on RXF-631 renal, in the experiment on LXFL 529 NSCLC, in the experiment on SNB-78 CNS, in the experiment with KM20L2 colon and with XF 498 CNS was more than 100 µM each time. The compound further came in with a TGI in the experiment on M19-MEL melanoma of more than 100 µM.
As to `COc1ccc(CC2NCCc3cc(OC)c(OC)cc32)cc1Br` (centres undefined), the TGI is 63.1 µM in the experiment with T-47D breast; 57.5 µM in the experiment on DMS 273 small cell lung; more than 100 µM with LXFL 529 NSCLC; more than 100 µM with SNB-78 CNS; more than 100 µM with KM20L2 colon; 47 µM in the experiment on XF 498 CNS. For the same compound, the TGI was 41.5 µM in the experiment with M19-MEL melanoma and more than 100 µM in the experiment with MDA-N.
For the compound `CC(C)(C)c1cc(C(O)(C(F)(F)F)C(F)(F)F)c2c(c1)C(C(F)(F)F)(C(F)(F)F)OC(C(C)(C)C)N2` (centres undefined), the total growth inhibition concentration (TGI) with DMS 273 small cell lung was 11.1 µM; in the experiment on RXF-631 renal it was 19 µM; in the experiment with LXFL 529 NSCLC it was 11.7 µM; in the experiment with SNB-78 CNS, 14.2 µM; in the experiment with KM20L2 colon, 11.5 µM; in the experiment on XF 498 CNS, 1.84 µM. The TGI in the experiment on M19-MEL melanoma worked out at 12.9 µM.
As to `CCOC(=O)NC(=O)c1cn(CCCOC(=O)CCCCCCCCCCC(=O)OCCCn2cc(C(=O)NC(=O)OCC)c(=O)[nH]c2=O)c(=O)[nH]c1=O`, the concentration for total growth inhibition (TGI) in the experiment with RXF-631 renal, in the experiment with LXFL 529 NSCLC, in the experiment with SNB-78 CNS, in the experiment with KM20L2 colon, in the experiment with XF 498 CNS and with M19-MEL melanoma was more than 100 µM each time.
With `O=C1CSC(/C(=N/Nc2ccccc2)c2nc3ccccc3[nH]2)=N1`, the concentration for total growth inhibition (TGI) is 47.3 µM in the experiment with DMS 273 small cell lung; more than 100 µM with LXFL 529 NSCLC; more than 100 µM in the experiment with SNB-78 CNS; more than 100 µM in the experiment with KM20L2 colon; 73.4 µM with XF 498 CNS; more than 100 µM with M19-MEL melanoma.
`O=C(O)[C@H](NS(=O)(=O)c1ccc([N+](=O)[O-])cc1)c1ccccc1`: the TGI with DMS 273 small cell lung, in the experiment with RXF-631 renal, with LXFL 529 NSCLC, in the experiment on SNB-78 CNS, with KM20L2 colon and in the experiment with XF 498 CNS was more than 100 µM throughout. In the experiment on M19-MEL melanoma, this compound yielded a TGI of more than 100 µM.

The values above are taken from PubChem BioAssay (NCI).
